The values below come from patent US12371428B2 (Exelixis, Inc., priority 2019, dated 2025).

Where only a bound is given, the exact number is not on record here.

Holding throughout (format): cell-based
Assay [1] has as its target AXL (phospho-AXL, Gas6-stimulated A-172 glioblastoma cells) (Homo sapiens (Human), UniProt P30530). The experiment in a line: AXL autophosphorylation ELISA in A-172 cells (Example E). The conditions noted are these: cellular activity; AXL autophosphorylation ELISA in A-172 cells; read-out: Axl IC50. In a few lines:
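Phospho-AXL was measured by ELISA in lysates of Gas6-stimulated A-172 cells, starved 24 h in serum-free medium and exposed 1 h to an 8-point compound dilution at 0.3% DMSO.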
(In an ELISA, binding on a coated surface is turned into a signal by an enzyme label.)

For assay [2], the target named is Met (phospho-Met, HGF-stimulated PC-3 prostate cancer cells) (Homo sapiens (Human), UniProt P08581). The experiment in a line: Met autophosphorylation ELISA in PC-3 cells (Example F). The conditions noted are these: cellular activity; Met autophosphorylation ELISA in PC-3 cells; read-out: c-Met IC50. In a few lines:
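Serum-starved (3 h) PC-3 cells were treated 1 h with compounds (8-point curve, 0.3% DMSO), then stimulated with 100 ng/mL human HGF for 10 min. Lysate phospho-Met (panTyr) was measured by sandwich ELISA, normalised to DMSO and reference-inhibitor controls. IC50 came from 4-parameter logistic fit.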

The target of assay [3] is KDR (phospho-KDR, VEGF165-stimulated HUVEC cells) (Homo sapiens (Human), UniProt P35968). The experiment in a line: KDR autophosphorylation ELISA in HUVEC cells (Example G). The conditions noted are these: cellular activity; KDR autophosphorylation ELISA in HUVEC cells. In outline:
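First, endothelial cells were cultured a day, then kept without serum for another day. Next came 1 h with serially diluted compound, a brief 5 min VEGF165 stimulus (100 ng/mL), rapid lysis, and ELISA detection of receptor phosphorylation relative to stimulated and non-stimulated controls.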

Assay [4] deals with Mer (phospho-Mer, MERTK-transfected 293A cells) (Homo sapiens (Human), UniProt Q12866). The experiment in a line: Mer autophosphorylation ELISA in transient transfected 293A cells (Example H). As to conditions: cellular activity; Mer autophosphorylation ELISA in transient transfected 293A cells. In a few lines: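 IC50 from 4-parameter logistic fit of phospho-Mer levels, quantified by ELISA against a phospho-Mer standard in lysates of MERTK-transfected 293A cells. Cells exposed 1 h to 8-point serial dilutions, serum-free, 0.3% DMSO; controls: DMSO (100%) and reference inhibitor (0%).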
Chain of Mer (phospho-Mer, MERTK-transfected 293A cells) (Q12866 21-999): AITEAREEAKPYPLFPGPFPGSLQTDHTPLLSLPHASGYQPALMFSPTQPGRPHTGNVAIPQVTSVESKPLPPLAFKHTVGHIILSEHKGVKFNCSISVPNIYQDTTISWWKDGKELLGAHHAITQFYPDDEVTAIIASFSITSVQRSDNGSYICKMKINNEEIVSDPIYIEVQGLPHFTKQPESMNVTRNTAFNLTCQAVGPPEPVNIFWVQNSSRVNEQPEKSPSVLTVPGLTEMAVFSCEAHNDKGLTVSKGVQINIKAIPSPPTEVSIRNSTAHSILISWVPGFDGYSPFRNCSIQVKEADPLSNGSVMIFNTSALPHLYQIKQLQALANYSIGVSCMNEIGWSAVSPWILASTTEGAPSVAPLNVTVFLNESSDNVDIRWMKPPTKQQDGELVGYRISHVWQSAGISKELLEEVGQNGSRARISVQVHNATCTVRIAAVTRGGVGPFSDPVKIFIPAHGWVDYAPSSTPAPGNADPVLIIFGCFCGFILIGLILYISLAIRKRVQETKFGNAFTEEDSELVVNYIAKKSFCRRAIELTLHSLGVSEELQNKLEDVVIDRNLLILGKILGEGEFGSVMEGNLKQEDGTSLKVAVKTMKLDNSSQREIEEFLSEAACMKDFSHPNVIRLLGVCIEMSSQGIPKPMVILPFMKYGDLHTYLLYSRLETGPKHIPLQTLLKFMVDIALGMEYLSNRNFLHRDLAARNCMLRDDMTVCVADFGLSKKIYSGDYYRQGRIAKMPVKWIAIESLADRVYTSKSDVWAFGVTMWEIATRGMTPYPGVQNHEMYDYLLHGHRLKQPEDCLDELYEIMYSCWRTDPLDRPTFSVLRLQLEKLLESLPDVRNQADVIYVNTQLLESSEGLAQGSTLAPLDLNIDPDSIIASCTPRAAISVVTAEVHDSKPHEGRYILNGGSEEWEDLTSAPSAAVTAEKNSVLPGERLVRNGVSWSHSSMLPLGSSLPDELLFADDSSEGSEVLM

Chain of AXL (phospho-AXL, Gas6-stimulated A-172 glioblastoma cells) (P30530 26-894): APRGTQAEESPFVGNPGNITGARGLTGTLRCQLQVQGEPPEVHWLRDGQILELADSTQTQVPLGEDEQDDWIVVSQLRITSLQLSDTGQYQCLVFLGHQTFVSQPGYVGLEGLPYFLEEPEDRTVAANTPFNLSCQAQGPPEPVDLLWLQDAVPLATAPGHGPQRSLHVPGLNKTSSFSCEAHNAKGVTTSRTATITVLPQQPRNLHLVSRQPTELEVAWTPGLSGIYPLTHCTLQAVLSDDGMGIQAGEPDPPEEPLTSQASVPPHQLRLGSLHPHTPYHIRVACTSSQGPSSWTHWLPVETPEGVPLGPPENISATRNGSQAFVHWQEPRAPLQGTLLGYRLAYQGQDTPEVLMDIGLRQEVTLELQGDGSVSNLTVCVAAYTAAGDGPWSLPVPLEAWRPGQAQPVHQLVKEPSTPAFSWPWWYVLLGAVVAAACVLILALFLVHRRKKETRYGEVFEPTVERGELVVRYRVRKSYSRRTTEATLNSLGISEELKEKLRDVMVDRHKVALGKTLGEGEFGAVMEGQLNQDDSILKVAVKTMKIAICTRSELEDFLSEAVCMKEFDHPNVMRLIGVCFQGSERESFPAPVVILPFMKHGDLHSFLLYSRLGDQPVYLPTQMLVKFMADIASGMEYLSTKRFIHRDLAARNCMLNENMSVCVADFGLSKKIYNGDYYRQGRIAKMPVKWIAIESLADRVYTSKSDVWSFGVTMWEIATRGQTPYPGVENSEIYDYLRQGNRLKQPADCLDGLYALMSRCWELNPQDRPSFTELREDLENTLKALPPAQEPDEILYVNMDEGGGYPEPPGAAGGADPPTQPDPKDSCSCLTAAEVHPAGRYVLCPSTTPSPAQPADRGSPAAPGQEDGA
Chain of Met (phospho-Met, HGF-stimulated PC-3 prostate cancer cells) (P08581 25-1390): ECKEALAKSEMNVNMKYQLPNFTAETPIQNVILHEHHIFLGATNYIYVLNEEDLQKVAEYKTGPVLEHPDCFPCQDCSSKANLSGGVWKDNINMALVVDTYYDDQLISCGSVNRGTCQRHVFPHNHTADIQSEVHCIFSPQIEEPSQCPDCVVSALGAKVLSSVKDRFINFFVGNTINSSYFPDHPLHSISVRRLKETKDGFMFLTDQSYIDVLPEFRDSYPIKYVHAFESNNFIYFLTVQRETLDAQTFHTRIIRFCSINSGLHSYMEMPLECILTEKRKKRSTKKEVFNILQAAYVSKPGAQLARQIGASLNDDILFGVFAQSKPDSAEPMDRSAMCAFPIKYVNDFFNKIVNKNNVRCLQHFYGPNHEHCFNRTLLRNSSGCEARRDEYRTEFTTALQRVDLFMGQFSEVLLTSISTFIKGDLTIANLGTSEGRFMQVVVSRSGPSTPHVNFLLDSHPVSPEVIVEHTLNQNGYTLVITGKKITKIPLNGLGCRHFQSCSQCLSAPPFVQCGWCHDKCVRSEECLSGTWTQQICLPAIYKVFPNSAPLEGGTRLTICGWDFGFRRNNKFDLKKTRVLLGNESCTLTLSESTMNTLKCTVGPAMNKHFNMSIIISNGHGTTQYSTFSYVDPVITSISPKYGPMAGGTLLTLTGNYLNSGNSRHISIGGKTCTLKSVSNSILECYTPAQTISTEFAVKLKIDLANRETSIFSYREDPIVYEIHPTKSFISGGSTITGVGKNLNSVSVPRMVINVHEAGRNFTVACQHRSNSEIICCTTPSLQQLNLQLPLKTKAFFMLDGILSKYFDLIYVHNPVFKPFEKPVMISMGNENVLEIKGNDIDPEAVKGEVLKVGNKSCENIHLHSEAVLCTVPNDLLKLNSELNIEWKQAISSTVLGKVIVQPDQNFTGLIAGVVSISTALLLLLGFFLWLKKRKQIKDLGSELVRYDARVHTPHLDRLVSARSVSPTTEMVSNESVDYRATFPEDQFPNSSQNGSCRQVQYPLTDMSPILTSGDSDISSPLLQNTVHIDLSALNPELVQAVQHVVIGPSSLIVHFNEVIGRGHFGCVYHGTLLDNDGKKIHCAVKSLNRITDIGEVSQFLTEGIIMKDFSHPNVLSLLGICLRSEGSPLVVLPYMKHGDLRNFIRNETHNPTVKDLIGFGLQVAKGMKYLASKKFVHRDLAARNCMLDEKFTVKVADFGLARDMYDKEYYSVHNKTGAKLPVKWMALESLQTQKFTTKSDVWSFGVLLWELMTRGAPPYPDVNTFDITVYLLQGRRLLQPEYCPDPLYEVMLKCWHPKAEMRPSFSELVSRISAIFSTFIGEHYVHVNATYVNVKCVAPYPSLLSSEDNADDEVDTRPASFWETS
Chain of KDR (phospho-KDR, VEGF165-stimulated HUVEC cells) (P35968 20-1356): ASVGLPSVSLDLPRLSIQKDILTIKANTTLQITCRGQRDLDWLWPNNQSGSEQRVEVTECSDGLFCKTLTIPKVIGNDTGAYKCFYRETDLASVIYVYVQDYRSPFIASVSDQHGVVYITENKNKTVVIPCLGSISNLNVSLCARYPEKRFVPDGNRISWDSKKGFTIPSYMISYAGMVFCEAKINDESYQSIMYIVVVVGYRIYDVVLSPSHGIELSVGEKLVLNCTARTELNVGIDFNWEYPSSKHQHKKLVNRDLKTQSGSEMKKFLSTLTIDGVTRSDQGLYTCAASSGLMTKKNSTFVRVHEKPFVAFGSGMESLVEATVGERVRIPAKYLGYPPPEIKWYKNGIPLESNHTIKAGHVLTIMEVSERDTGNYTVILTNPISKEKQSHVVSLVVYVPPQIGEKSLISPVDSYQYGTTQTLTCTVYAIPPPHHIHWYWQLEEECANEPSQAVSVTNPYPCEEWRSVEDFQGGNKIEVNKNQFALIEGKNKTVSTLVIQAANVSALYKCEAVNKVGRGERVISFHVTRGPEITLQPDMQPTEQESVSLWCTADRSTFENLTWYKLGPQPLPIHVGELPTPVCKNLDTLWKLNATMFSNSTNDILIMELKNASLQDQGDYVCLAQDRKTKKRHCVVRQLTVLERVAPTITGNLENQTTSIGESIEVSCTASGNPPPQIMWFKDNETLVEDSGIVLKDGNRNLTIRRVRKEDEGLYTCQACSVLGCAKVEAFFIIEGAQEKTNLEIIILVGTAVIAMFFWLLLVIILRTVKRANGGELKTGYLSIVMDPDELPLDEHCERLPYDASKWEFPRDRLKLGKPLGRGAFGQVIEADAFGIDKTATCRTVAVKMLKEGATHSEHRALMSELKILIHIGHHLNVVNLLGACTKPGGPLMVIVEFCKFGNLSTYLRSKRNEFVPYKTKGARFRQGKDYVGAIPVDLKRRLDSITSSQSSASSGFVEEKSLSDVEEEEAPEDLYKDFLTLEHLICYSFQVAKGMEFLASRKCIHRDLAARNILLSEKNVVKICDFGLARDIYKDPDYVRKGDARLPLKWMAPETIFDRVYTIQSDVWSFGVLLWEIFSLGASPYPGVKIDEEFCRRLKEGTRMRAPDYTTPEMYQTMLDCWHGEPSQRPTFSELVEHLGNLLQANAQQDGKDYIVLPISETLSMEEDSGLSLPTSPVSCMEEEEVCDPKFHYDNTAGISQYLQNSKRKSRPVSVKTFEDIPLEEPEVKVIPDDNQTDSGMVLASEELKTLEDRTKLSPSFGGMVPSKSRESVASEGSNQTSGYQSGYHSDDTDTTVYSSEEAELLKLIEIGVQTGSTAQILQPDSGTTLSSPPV

Regarding `CCOc1nc2c(Oc3ccc(NC(=O)c4cnc(C)c(-c5ccc(F)cc5C)c4O)cc3)ccnc2cc1OC` [Compound 673, N-[4-[(6-ethoxy-7-methoxy-1,5-naphthyridin-4-yl)oxy]phenyl]-5-(4-fluoro-2-methylphenyl)-4-hydroxy-6-methylpyridine-3-carboxamide], the IC50 in assay [1], in assay [2], in assay [3] and in assay [4] was less than 100 nM in each case.

Consider `CCOc1nc2c(Oc3ccc(NC(=O)c4c(C)nc(C)c(-c5ccc(F)cc5C)c4O)cc3)ccnc2cc1OC` [Compound 674, N-[4-[(6-ethoxy-7-methoxy-1,5-naphthyridin-4-yl)oxy]phenyl]-5-(4-fluoro-2-methylphenyl)-4-hydroxy-2,6-dimethylpyridine-3-carboxamide], for which the IC50 in assay [1], in assay [2], in assay [3] and in assay [4] was less than 100 nM in each case.

Take `CCOc1nc2c(Oc3ccc(NC(=O)c4c(C)ncc(-c5ccc(F)cc5)c4O)cc3F)ccnc2cc1OC` [Compound 675, N-[4-[(6-ethoxy-7-methoxy-1,5-naphthyridin-4-yl)oxy]-3-fluorophenyl]-5-(4-fluorophenyl)-4-hydroxy-2-methylpyridine-3-carboxamide]: the IC50 in assay [1], in assay [2], in assay [3] and in assay [4] was less than 100 nM each time.

As to `CCOc1nc2c(Oc3ccc(NC(=O)c4c(COC)nc(C)c(-c5ccc(F)cc5)c4O)cc3F)ccnc2cc1OC` [Compound 676, N-[4-[(6-ethoxy-7-methoxy-1,5-naphthyridin-4-yl)oxy]-3-fluorophenyl]-5-(4-fluorophenyl)-4-hydroxy-2-(methoxymethyl)-6-methylpyridine-3-carboxamide], the IC50 in assay [1], in assay [2], in assay [3] and in assay [4] was less than 100 nM in each case.

Regarding `CCOc1nc2c(Oc3ccc(NC(=O)c4cnc(C)c(-c5ccc(F)cc5C)c4O)cc3F)ccnc2cc1OC` [Compound 677, N-[4-[(6-ethoxy-7-methoxy-1,5-naphthyridin-4-yl)oxy]-3-fluorophenyl]-5-(4-fluoro-2-methylphenyl)-4-hydroxy-6-methylpyridine-3-carboxamide], the IC50 in assay [1], in assay [2], in assay [3] and in assay [4] was less than 100 nM in each case.

Regarding `CCOc1nc2c(Oc3ccc(NC(=O)c4c(C)nc(C)c(-c5ccc(F)cc5C)c4O)cc3F)ccnc2cc1OC` [Compound 678, N-[4-[(6-ethoxy-7-methoxy-1,5-naphthyridin-4-yl)oxy]-3-fluorophenyl]-5-(4-fluoro-2-methylphenyl)-4-hydroxy-2,6-dimethylpyridine-3-carboxamide], the IC50 in assay [1], in assay [2], in assay [3] and in assay [4] was less than 100 nM in each case.

For `COc1cc2nccc(Oc3ccc(NC(=O)c4c(C)c(C)cn(-c5ccc(F)cc5)c4=O)cc3F)c2nc1OC` [Compound 679, N-[4-[(6,7-dimethoxy-1,5-naphthyridin-4-yl)oxy]-3-fluorophenyl]-1-(4-fluorophenyl)-4,5-dimethyl-2-oxopyridine-3-carboxamide], the IC50 in assay [1], in assay [2], in assay [3] and in assay [4] was less than 100 nM each time.

As to `COc1cc2nccc(Oc3ccc(NC(=O)c4c(C)c(C)cn(-c5ccc(F)cc5)c4=O)cc3)c2nc1OC` [Compound 680, N-[4-[(6,7-dimethoxy-1,5-naphthyridin-4-yl)oxy]phenyl]-1-(4-fluorophenyl)-4,5-dimethyl-2-oxopyridine-3-carboxamide], the IC50 in assay [1], in assay [2], in assay [3] and in assay [4] was less than 100 nM in each case.

With `COc1cc2nccc(Oc3ccc(NC(=O)c4c(C)nc(C)c(-c5ccc(F)cc5C)c4O)cc3)c2nc1OC` [Compound 681, N-[4-[(6,7-dimethoxy-1,5-naphthyridin-4-yl)oxy]phenyl]-5-(4-fluoro-2-methylphenyl)-4-hydroxy-2,6-dimethylpyridine-3-carboxamide], the IC50 in assay [1], in assay [2], in assay [3] and in assay [4] was less than 100 nM throughout.

`COc1cnc2c(Oc3ccc(NC(=O)c4c(C)nc(C)c(-c5ccc(F)cc5C)c4O)cc3)ccnc2c1` [Compound 682, 5-(4-fluoro-2-methylphenyl)-4-hydroxy-N-[4-[(7-methoxy-1,5-naphthyridin-4-yl)oxy]phenyl]-2,6-dimethylpyridine-3-carboxamide]: the IC50 in assay [1], in assay [2], in assay [3] and in assay [4] was less than 100 nM in each case.

For the compound `COCCOc1cnc2c(Oc3ccc(NC(=O)c4c(C)nc(C)c(-c5ccc(F)cc5C)c4O)cc3F)ccnc2c1` [Compound 683, N-[3-fluoro-4-[[7-(2-methoxyethoxy)-1,5-naphthyridin-4-yl]oxy]phenyl]-5-(4-fluoro-2-methylphenyl)-4-hydroxy-2,6-dimethylpyridine-3-carboxamide], the IC50 in assay [1], in assay [2], in assay [3] and in assay [4] was less than 100 nM throughout.

On to `COc1cc2nccc(Oc3ccc(NC(=O)c4nc(C)cn(-c5ccc(F)cc5)c4=O)cc3F)c2nc1OC` [Compound 684, N-[4-[(6,7-dimethoxy-1,5-naphthyridin-4-yl)oxy]-3-fluorophenyl]-4-(4-fluorophenyl)-6-methyl-3-oxopyrazine-2-carboxamide], for which the IC50 – broadly, the concentration that inhibits the measured activity by half – in assay [1] is less than 100 nM; in assay [2], less than 100 nM; in assay [3] it was greater than 300 nM; in assay [4], less than 100 nM.

Turning to `COc1cnc2c(Oc3ccc(NC(=O)c4cn(C)c(C5CC5)c(-c5ccc(F)cc5)c4=O)cc3F)ccnc2c1` [Compound 685, 6-cyclopropyl-N-[3-fluoro-4-[(7-methoxy-1,5-naphthyridin-4-yl)oxy]phenyl]-5-(4-fluorophenyl)-1-methyl-4-oxopyridine-3-carboxamide], the IC50 in assay [1] is less than 100 nM; in assay [2], less than 100 nM; in assay [3] it was greater than 300 nM; in assay [4], less than 100 nM.

Consider `COc1cnc2c(Oc3ccc(NC(=O)c4c(C)nc(C)c(-c5ccc(F)cc5OC)c4O)cc3F)ccnc2c1` [Compound 686, N-[3-fluoro-4-[(7-methoxy-1,5-naphthyridin-4-yl)oxy]phenyl]-5-(4-fluoro-2-methoxyphenyl)-4-hydroxy-2,6-dimethylpyridine-3-carboxamide], for which the IC50 in assay [1], in assay [2], in assay [3] and in assay [4] was less than 100 nM throughout.

With `COc1cnc2c(Oc3ccc(NC(=O)c4c(C)nc(C)c(-c5ccc(F)c(F)c5)c4O)cc3F)ccnc2c1` [Compound 687, 5-(3,4-difluorophenyl)-N-[3-fluoro-4-[(7-methoxy-1,5-naphthyridin-4-yl)oxy]phenyl]-4-hydroxy-2,6-dimethylpyridine-3-carboxamide], the IC50 in assay [1], in assay [2], in assay [3] and in assay [4] was less than 100 nM throughout.

`COc1cnc2c(Oc3ccc(NC(=O)c4c(C)nc(C)c(-c5ccc(F)c(OC)c5)c4O)cc3F)ccnc2c1` [Compound 688, N-[3-fluoro-4-[(7-methoxy-1,5-naphthyridin-4-yl)oxy]phenyl]-5-(4-fluoro-3-methoxyphenyl)-4-hydroxy-2,6-dimethylpyridine-3-carboxamide]: the IC50 in assay [1], in assay [2], in assay [3] and in assay [4] was less than 100 nM each time.

Regarding `COc1cnc2c(Oc3ccc(NC(=O)c4c(C)nc(C)c(-c5ccc(F)c(C)c5)c4O)cc3F)ccnc2c1` [Compound 689, N-[3-fluoro-4-[(7-methoxy-1,5-naphthyridin-4-yl)oxy]phenyl]-5-(4-fluoro-3-methylphenyl)-4-hydroxy-2,6-dimethylpyridine-3-carboxamide], the half-maximal inhibitory concentration (IC50) in assay [1], in assay [2], in assay [3] and in assay [4] was less than 100 nM in each case.

Take `COc1cnc2c(Oc3ccc(NC(=O)c4c(C)nc(C)c(-c5ccc(C(C)C)cc5)c4O)cc3F)ccnc2c1` [Compound 690, N-[3-fluoro-4-[(7-methoxy-1,5-naphthyridin-4-yl)oxy]phenyl]-4-hydroxy-2,6-dimethyl-5-(4-propan-2-ylphenyl)pyridine-3-carboxamide]: the IC50 in assay [1] was greater than 300 nM; in assay [2], greater than 300 nM; in assay [3], greater than 300 nM; in assay [4], 100 to 300 nM.
